Results reported in article PMC7179119, “A New Positron Emission Tomography Probe for Orexin Receptors Neuroimaging” (Molecules, 2020).
Like-named read-outs stand apart in the source and are kept apart here.

What was measured:
[1] = Assessment of Lipophilicity (Log D; pH 7.4); type: physicochemical
Description: Log D was determined according to methods identical to those we previously reported.

M5 = biological target: T1, M5 (Homo sapiens, UniProt P08912); assay: PDSP off-target radioligand binding assay
T1 sequence (P08912 1-532): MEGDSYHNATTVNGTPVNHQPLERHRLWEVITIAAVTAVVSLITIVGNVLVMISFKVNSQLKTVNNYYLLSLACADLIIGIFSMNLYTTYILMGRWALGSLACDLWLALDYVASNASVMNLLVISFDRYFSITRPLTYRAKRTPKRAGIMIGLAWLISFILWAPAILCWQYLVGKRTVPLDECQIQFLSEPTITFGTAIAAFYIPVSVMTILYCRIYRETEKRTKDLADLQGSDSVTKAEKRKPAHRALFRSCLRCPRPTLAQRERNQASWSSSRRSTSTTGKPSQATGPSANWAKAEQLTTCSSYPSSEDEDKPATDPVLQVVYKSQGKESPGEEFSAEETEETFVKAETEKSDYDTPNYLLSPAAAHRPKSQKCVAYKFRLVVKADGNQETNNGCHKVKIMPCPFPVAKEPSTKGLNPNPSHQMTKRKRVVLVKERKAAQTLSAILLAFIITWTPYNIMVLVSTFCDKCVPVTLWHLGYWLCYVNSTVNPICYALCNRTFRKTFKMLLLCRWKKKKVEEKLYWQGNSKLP
Description: (§1) Table S1. Off binding data of CW24.
(§2) The off-target binding assays were performed at PDSP with their standard protocol (https://pdspdb.unc.edu/pdspWeb/content/UNC-CH%20Protocol%20Book.pdf). In radioligand binding assays, CW24 was tested at a single concentration (10 µM) and in quadruplicate in 96-well plates. The binding assays were carried out in a final of volume of 125 µl per well in appropriate binding buffers. The hot ligand concentration is usually at a concentration close to the Kd (unless otherwise indicated). Total binding and nonspecific binding are determined in the absence and presence of 10 µM of the appropriate reference compound, respectively. In brief, plates are usually incubated at room temperature and in the dark for 90 mins. Reactions are stopped by vacuum filtration onto 0.3% polyethyleneimine (PEI) soaked 96-well filter mats using a 96-well Filtermate harvester, followed by three washes with cold wash buffers (for details, see Tables 2 to 24). Scintillation cocktail is then melted onto the microwave-dried filters on a hot plate and radioactivity is counted in a Microbeta counter.
(§3) Receptor % Inhibition 1 % Inhibition 2 % Inhibition 3 % Inhibition 4 Mean±SD %

D5 = D5 (Homo sapiens, UniProt P21918); assay: PDSP off-target radioligand binding assay
Description: as §1, §2, §3

D3 = biological target: T2, D3 (Homo sapiens, UniProt P35462); assay: PDSP off-target radioligand binding assay
T2 construct: NIMH PDSP
Description: as §1, §2, §3

M4 = biological target: T3, M4 (Homo sapiens, UniProt P08173); assay: PDSP off-target radioligand binding assay
T3 sequence (P08173 1-479): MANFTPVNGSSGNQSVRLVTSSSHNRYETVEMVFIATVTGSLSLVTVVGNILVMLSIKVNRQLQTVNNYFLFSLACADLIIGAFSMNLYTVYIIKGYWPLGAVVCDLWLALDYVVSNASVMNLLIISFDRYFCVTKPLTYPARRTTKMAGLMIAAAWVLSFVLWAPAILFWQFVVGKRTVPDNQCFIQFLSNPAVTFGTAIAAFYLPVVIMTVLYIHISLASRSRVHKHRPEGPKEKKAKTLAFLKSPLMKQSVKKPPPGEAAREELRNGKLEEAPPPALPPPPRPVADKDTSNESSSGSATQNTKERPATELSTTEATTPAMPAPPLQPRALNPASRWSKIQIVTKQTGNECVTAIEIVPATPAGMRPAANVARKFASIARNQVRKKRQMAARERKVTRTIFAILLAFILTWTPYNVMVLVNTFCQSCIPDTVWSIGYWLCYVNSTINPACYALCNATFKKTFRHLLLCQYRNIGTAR
Description: as §1, §2, §3

Alpha1A = biological target: T4, Alpha1A (Homo sapiens, UniProt P35348); assay: PDSP off-target radioligand binding assay
T4 construct: NIMH PDSP
T4 sequence (P35348 1-466): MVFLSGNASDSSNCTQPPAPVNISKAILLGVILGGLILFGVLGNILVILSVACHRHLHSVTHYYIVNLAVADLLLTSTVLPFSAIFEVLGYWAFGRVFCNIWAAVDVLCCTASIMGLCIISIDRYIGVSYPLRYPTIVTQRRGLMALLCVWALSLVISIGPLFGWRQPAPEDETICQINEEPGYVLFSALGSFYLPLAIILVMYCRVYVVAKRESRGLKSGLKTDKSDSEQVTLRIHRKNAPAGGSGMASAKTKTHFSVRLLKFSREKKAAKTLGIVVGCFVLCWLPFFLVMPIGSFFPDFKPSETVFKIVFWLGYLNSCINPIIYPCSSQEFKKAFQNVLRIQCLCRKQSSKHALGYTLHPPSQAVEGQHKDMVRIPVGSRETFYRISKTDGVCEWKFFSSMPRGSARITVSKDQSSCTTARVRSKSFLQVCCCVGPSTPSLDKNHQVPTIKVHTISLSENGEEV
Description: as §1, §2, §3

5-HT1B = biological target: T5, 5-HT1B (Homo sapiens, UniProt P28222); assay: PDSP off-target radioligand binding assay
T5 construct: NIMH PDSP
Description: as §1, §2, §3

SERT = SERT (Homo sapiens, UniProt P31645); assay: PDSP off-target radioligand binding assay
Description: as §1, §2, §3

Beta2 = biological target: T6, Beta2 (Homo sapiens, UniProt P07550); assay: PDSP off-target radioligand binding assay
T6 construct: NIMH PDSP
Description: as §1, §2, §3

[2] = quadruplicate, read-out: Mean±SD % inhibition
[3] = replicate 1, read-out: % Inhibition 1
[4] = replicate 2, read-out: % Inhibition 2
[5] = replicate 3, read-out: % Inhibition 3
[6] = replicate 4, read-out: % Inhibition 4

Sequence of SERT (P31645 whole entry, species assumed): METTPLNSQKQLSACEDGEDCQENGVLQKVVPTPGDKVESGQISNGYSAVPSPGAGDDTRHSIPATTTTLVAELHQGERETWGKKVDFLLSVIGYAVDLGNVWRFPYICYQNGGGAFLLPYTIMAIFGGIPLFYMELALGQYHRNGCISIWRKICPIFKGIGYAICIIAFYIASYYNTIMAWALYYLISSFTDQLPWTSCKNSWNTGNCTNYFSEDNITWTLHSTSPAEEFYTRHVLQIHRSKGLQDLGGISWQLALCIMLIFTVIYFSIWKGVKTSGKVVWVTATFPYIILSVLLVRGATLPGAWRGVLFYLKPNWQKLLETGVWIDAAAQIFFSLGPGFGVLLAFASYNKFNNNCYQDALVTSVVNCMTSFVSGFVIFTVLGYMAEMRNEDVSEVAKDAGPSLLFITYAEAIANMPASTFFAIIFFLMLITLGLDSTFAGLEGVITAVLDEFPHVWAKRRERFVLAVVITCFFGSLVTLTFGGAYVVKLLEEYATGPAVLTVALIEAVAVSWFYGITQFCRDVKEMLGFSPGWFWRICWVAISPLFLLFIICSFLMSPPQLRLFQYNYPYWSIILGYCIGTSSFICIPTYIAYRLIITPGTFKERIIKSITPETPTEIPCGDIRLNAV
T2 sequence (P35462 whole entry): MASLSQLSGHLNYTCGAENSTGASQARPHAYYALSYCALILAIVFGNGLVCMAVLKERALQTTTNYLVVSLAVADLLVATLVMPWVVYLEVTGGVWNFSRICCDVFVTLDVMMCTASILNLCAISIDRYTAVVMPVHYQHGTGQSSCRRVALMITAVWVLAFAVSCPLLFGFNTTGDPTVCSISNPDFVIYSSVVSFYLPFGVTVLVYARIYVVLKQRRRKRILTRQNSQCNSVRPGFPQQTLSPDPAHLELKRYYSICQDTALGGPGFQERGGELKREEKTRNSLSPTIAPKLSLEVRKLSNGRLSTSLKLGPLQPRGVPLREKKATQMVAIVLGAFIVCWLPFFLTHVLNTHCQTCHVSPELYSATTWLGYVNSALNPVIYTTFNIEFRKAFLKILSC
T5 sequence (P28222 whole entry, species assumed): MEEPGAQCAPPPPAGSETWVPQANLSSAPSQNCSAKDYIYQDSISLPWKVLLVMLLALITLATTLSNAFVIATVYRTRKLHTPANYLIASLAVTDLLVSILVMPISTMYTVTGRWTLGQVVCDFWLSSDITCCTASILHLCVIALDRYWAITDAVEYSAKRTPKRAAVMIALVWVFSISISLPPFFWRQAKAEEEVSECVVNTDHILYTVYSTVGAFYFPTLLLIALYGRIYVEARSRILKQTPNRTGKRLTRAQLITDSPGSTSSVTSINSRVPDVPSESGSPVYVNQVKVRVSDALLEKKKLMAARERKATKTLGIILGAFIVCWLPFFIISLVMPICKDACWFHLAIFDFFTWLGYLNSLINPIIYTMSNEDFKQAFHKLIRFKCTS
T6 sequence (P07550 whole entry): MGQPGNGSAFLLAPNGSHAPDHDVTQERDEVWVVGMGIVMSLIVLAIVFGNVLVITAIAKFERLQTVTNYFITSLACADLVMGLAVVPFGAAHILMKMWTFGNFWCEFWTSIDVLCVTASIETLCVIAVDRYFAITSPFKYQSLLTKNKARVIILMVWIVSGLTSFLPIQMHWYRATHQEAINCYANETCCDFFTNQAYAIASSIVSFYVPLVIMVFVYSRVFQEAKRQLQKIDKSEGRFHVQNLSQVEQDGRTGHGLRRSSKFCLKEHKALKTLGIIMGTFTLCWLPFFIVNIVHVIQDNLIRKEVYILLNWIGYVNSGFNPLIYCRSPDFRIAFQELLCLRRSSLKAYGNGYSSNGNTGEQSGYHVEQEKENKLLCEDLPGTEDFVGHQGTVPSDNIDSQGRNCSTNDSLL
Sequence of D5 (P21918 whole entry): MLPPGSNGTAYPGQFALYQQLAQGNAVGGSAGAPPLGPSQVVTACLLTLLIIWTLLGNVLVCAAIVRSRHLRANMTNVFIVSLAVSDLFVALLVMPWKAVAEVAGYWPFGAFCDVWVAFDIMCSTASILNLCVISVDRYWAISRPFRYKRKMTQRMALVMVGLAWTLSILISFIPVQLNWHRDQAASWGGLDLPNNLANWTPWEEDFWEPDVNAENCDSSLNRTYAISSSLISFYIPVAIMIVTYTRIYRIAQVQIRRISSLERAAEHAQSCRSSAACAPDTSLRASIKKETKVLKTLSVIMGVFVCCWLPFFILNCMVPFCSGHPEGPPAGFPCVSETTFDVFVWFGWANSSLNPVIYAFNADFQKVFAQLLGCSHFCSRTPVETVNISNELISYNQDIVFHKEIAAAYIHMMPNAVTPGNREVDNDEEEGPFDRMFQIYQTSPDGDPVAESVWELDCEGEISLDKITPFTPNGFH

Which results are given for `COc1ccnc(N2CCC3(CCCN(Cc4cn(C)c5ccccc45)C3=O)CC2)n1` [CW24]?
logD [1]: 2.3; inhibition at 10 µM (M5; [2]): 27.4 ± 11.1%; inhibition at 10 µM (M5; [3]): 15.3%; inhibition at 10 µM (M5; [4]): 31.9%; inhibition at 10 µM (M5; [5]): 40.5%; inhibition at 10 µM (M5; [6]): 21.6%; inhibition at 10 µM (D5; [2]): 15.5 ± 27.3%; inhibition at 10 µM (D5; [3]): 4.57%; inhibition at 10 µM (D5; [4]): -5.32%; inhibition at 10 µM (D5; [5]): 7.05%; inhibition at 10 µM (D5; [6]): 55.8%; inhibition at 10 µM (D3; [2]): -4.9 ± 5.5%; inhibition at 10 µM (D3; [3]): 3.09%; inhibition at 10 µM (D3; [4]): -9.41%; inhibition at 10 µM (D3; [5]): -6.79%; inhibition at 10 µM (D3; [6]): -6.5%; inhibition at 10 µM (M4; [2]): -3.86 ± 14.8%; inhibition at 10 µM (M4; [3]): 0.88%; inhibition at 10 µM (M4; [4]): -23.9%; inhibition at 10 µM (M4; [5]): -3.92%; inhibition at 10 µM (M4; [6]): 11.5%; inhibition at 10 µM (Alpha1A; [2]): -7.99 ± 16.7%; inhibition at 10 µM (Alpha1A; [3]): 17%; inhibition at 10 µM (Alpha1A; [4]): -16.2%; inhibition at 10 µM (Alpha1A; [5]): -17.6%; inhibition at 10 µM (Alpha1A; [6]): -15.1%; inhibition at 10 µM (5-HT1B; [2]): 13.4 ± 6.1%; inhibition at 10 µM (5-HT1B; [3]): 19%; inhibition at 10 µM (5-HT1B; [4]): 18%; inhibition at 10 µM (5-HT1B; [5]): 6.23%; inhibition at 10 µM (5-HT1B; [6]): 10.4%; inhibition at 10 µM (SERT; [2]): 10.8 ± 11.9%; inhibition at 10 µM (SERT; [3]): 10.6%; inhibition at 10 µM (SERT; [4]): -3.59%; inhibition at 10 µM (SERT; [5]): 10.6%; inhibition at 10 µM (SERT; [6]): 25.6%; inhibition at 10 µM (Beta2; [2]): -10.5 ± 5.4%; inhibition at 10 µM (Beta2; [3]): -12.2%; inhibition at 10 µM (Beta2; [4]): -5.09%; inhibition at 10 µM (Beta2; [5]): -7.41%; inhibition at 10 µM (Beta2; [6]): -17.3%
